# “Also recorded” adds a separate entry of the source. Read-outs that look alike come from different tables or passages of the source.
# Tests used:
# SMN protein [1] = assay: SMN protein levels in whole blood (Roche Elecsys immunoassay); assay type: in vivo, human
# Description: Table 7A and Table 7B presents SMN protein levels in whole blood (measured in ng/mL) in the carrier and the subject as the fetal subject and the neonatal subject of this Example, and reference values are shown in Table 7C below. Table 7B is a continuation of Table 7A from 32.5 weeks gestation prior to administration of risdiplam to the carrier through 43 days post-delivery. SMN protein levels in the whole blood were performed using an immunoassay developed by Roche Diagnostics on the Elecsys® platform.
# [2] = rodents and rabbits; cited from earlier work
# clinical = assay: clinical; design: species or system human; conditions: in vivo
# Description: The fetal subject assigned to this treatment plan received risdiplam through the carrier after all basic organ systems of the fetal subject had substantially completed fundamental embryogenesis in its third trimester of development in a range of from about thirty-two and a half weeks to its delivery from the carrier at about thirty-eight and a half weeks gestation. During this period, risdiplam was administered to the fetal subject through a carrier treatment cycle in which a single daily dose of 5 mg of risdiplam was administered orally to the carrier of the fetal subject.
# Risdiplam trough drug levels were obtained from the carrier and the subject as the neonatal subject at time points represented in Table 2A and Table 2B from 32.5 weeks gestation prior to administration of risdiplam to the carrier through 43 days post-delivery. The risdiplam drug levels detected in plasma (ng/mL) of the carrier and the neonatal subject were determined by liquid chromatography-tandem mass spectroscopy (LC-MS/MS).
# Since it was determined that a level of the risdiplam in the cord blood of the neonatal subject was less than about 100 ng/mL or about 0.1 mg/L when the neonatal subject was bom, the neonatal treatment cycle was initiated. The neonatal treatment cycle began 8 days after birth (d8) and included administering risdiplam to the neonatal subject at a single daily dose of 0.15 mg/kg.
# In addition, in Table 3, blood samples for risdiplam PK and PD were collected from the carrier prior to the first dose of the risdiplam and 24-hours post- dose of the risdiplam. PK/PD samples were collected from the carrier every two weeks for up to six weeks after delivery to assess risdiplam clearance. At the time of delivery, samples of umbilical cord blood and amniotic fluid were collected to assess risdiplam exposure to the fetal subject in utero. Collection of the cord blood and the amniotic fluid could have also included collection of the cord blood and the amniotic fluid during pregnancy of the carrier if an amniocentesis was deemed to be needed.
# SMN protein [3] = conditions: cited from earlier work
# [4] = Treatment emergent adverse events and safety monitoring of carrier, fetal subject and neonatal subject; assay type: in vivo, human; design: key to Serious (Y/N) / Study Term (Y/N): “Y” refers to yes; “N” refers to no; conditions: for Adverse Event or MedDRA Term: exposed in utero, oral 0.15 mg/kg from 8 days post-birth, 0.15 mg/kg
# Source text: X1 included routine monitoring of the carrier for the third trimester, specifically with regards to development of hypertension and features of pre-eclampsia or HELLP syndrome, with related blood and urine testing. X1 also included monitoring nausea, vomiting, or dehydration in the carrier and placental integrity and amniotic fluid volume. X1 further included fetal monitoring for fetal growth, organ system development, and fetal well- being and any signs of organ maldevelopment, especially in the brain, heart, kidney, and liver. A baseline pre-treatment full anatomical ultrasound study and growth scan were performed and subsequent ultrasonography occurred at three and six weeks before delivery of the fetal subject as the neonatal subject.
# Also in Table 3, “X2” included safety labs for the carrier, such as the CBC screening, the CMP screening, and the UA, to assess potential toxicity from risdiplam, which were collected before dosing and then prior to delivery. The safety labs were collected at the baseline before dosing, then every 3-4 weeks up to delivery, including pre-operatively prior to the scheduled cesarean section. More frequent testing may occur if clinically indicated.
# In Table 4, the “X5” post-delivery PK/PD collection and safety labs of the neonatal subject included CBC screening, CMP screening, and UA, and such safety labs could be repeated if the results are deemed abnormal as compared to a healthy individual.
# Table 5 summarizes results of the carrier and the fetal subject clinical assessments during the pregnancy of the carrier when exposed to risdiplam and in the neonatal subject for 6 weeks following delivery, for a minimum of 30 days following the last dose of risdiplam.
# Specifically, Table 5 depicts the treatment emergent adverse events, seriousness of the event, intensity of the adverse event, relatedness of the adverse event to administration of the risdiplam, study term, and start and end dates for the adverse event the detected from this Example.
# Each adverse event term is associated with a Medical Dictionary for Regulatory Activity (or MedDRA) term and the intensity is categorized based on the CTCAE grading. In Table 5, “Y” refers to yes and “N” refers to no and the intensity is measured from a lowest level of intensity or “I” to a highest level of intensity or “V.” “VSD” is a ventricular septal defect, “GERD” is gastroesophageal reflux disease, and “NICU” refers to neonatal intensive care unit.
smiles,measurement,setting,value
"Cc1cn2nc(-c3cc(=O)n4cc(N5CCNC6(CC6)C5)ccc4n3)cc(C)c2n1 [risdiplam, 7-(4,7-diazaspiro[2.5]octan-7-yl)-2-(2,8-dimethylimidazo[1,2-b]pyridazin-6-yl)-4H-pyrido[1,2-a]pyrimidin-4-one]",SMN protein level in whole blood relative to reference amounts,"SMN protein [1]; at d0, versus reference study (FIG. 2)",about two
same,SMN protein level in whole blood,"SMN protein [1]; carrier, 32.5 WG (pre-risdiplam)",7.7 ng/mL
same,SMN protein level in whole blood,"SMN protein [1]; carrier, 36 WG",6.3 ng/mL
same,SMN protein level in whole blood,"SMN protein [1]; carrier, 38 WG",6.0 ng/mL
same,SMN protein level in whole blood,"SMN protein [1]; carrier, birth 38.5 WG",4.0 ng/mL
same,SMN protein level in whole blood,"SMN protein [1]; carrier, d 20 post birth",5.0 ng/mL
same,SMN protein level in whole blood,"SMN protein [1]; carrier, d 29 post birth",5.1 ng/mL
same,SMN protein level in whole blood,"SMN protein [1]; carrier, d 43 post birth",4.6 ng/mL
same,Decline of SMN protein level,"SMN protein [1]; carrier, from prenatal treatment until delivery",48%
same,Increase of SMN protein level,"SMN protein [1]; carrier, postpartum period",15-28%
same,Increase of SMN protein level,"SMN protein [1]; neonatal subject, at d43 following drug initiation on d8",36%
same,SMN protein level in whole blood,"SMN protein [1]; neonatal subject, birth 38.5 WG (cord)",9.4 ng/mL
same,SMN protein level in whole blood,"SMN protein [1]; neonatal subject, d 8, no drug since birth",4.5 ng/mL
same,SMN protein level in whole blood,"SMN protein [1]; neonatal subject, d 43, oral 0.15 mg/kg/day from d8",6.1 ng/mL
same,Placental transfer,[2],crosses the placenta
same,Risdiplam level in amniotic fluid (AF),"clinical; female, human",5.09 ng/mL
same,"Risdiplam level in plasma, venous (V)","clinical; female, human",15.6 ng/mL
same,concentration at 43 d postnatal,"clinical; female, human",0.4 ng/mL
same,Risdiplam level in plasma,"clinical; female, human, 20 d postnatal",0.7 ng/mL
same,Risdiplam level in plasma,"clinical; female, human, 29 d postnatal",0.6 ng/mL
same,Kp,"clinical; female, human, Amniotic fluid risdiplam level relative to carrier plasma venous level",~0.33
same,Kp,"clinical; female, human, Cord venous and arterial plasma risdiplam level relative to carrier plasma level",~0.69
same,Level of risdiplam in cord blood,clinical; human,less than 100 ng/mL
same,"Risdiplam level in cord plasma, arterial (A)",clinical; human,10.4 ng/mL
same,"Risdiplam level in cord plasma, venous (V)",clinical; human,11.2 ng/mL
same,half-life,clinical; human,46 h
same,Risdiplam level in plasma,"clinical; human, 8 d postnatal",0.6 ng/mL
same,concentration at 43 d postnatal,"clinical; human, po, 0.15 mg/kg/day",62 ng/mL
same,Risdiplam trough level in plasma,clinical,BLQ*
same,Placental transfer from carrier to fetal subject,clinical; po,crosses the placenta
same,"SMN protein level in whole blood, reference values (median, range)","SMN protein [3]; high dose 0.2 mg/kg/day, 4 W risdiplam",5.9 (2.8-8.8) ng/mL
same,"SMN protein level in whole blood, reference values (median, range)","SMN protein [3]; high dose 0.2 mg/kg/day, 12 M risdiplam",5.7 (2.7-8.6) ng/mL
same,"SMN protein level in whole blood, reference values (median, range)","SMN protein [3]; high dose 0.2 mg/kg/day, T0",T0: 2.5 (1.1-6.4) ng/mL
same,"SMN protein level in whole blood, reference values (median, range)","SMN protein [3]; low dose 0.08 mg/kg/day, 4 W risdiplam",4.5 (2.6-5.6) ng/mL
same,"SMN protein level in whole blood, reference values (median, range)","SMN protein [3]; low dose 0.08 mg/kg/day, 12 M risdiplam",3.0 (1.8-5.5) ng/mL
same,"SMN protein level in whole blood, reference values (median, range)","SMN protein [3]; low dose 0.08 mg/kg/day, T0",T0: 1.3 (0.6-4.8) ng/mL
same,Serious (Y/N),[4]; carrier adverse events,N
same,Study Term (Y/N),[4]; carrier adverse events,N
same,Overall safety and tolerability,[4]; carrier and subject as fetal and neonatal subject,no drug-related adverse events; also recorded: safe and well tolerated
same,Surveillance labs during pregnancy,[4]; carrier while on risdiplam,normal until proteinuria was detected at 36WG
same,Fetal ultrasound assessments,[4]; fetal subject during carrier treatment,unremarkable
same,Biophysical profiles,"[4]; fetal subject, each time point",normal
same,"CBC, CMP, and U/A",[4]; neonatal subject,normal
same,Study Term (Y/N),[4]; neonatal subject adverse events,N
same,Adverse Event or MedDRA Term,"[4]; neonatal subject, adverse event number 1",Respiratory
same,Adverse Event or MedDRA Term,"[4]; neonatal subject, adverse event number 2",Congenital disorder
same,Adverse Event or MedDRA Term,"[4]; neonatal subject, adverse event number 3",Weight gain

# From patent US20240173325A1, “METHODS FOR TREATING SPINAL MUSCULAR ATROPHY” (Genentech, Inc., priority 2022, published 2024)
